Results from patent US20100120788A1, “IDENTIFICATION OF POLYNUCLEOTIDES FOR […] OF COMPOUNDS THAT […] WITH AND/OR MODULATE PROTEIN TYROSINE KINASES AND/OR PROTEIN TYROSINE KINASE […] IN PROSTATE CELLS” (Bristol-Myers Squibb Company, priority 2007, published 2010).

What was measured:
Assay type in all cases: cell-based, human
VCaP = assay: In vitro cell proliferation assay (MTS); conditions: VCaP cells
Description: (§1) The IC50 for each cell line was assessed in by MTS assays as described in Example 1 (Methods). […] The IC50 unit is μM.
(§2) All cell lines were obtained from the American Type Culture Collection (Manassas, Va.), except DUCaP, which was obtained from Dr. Kenneth Pienta at University of Michigan. PWR1E and MDAPCa2b cells were grown in BRFF-HPC1 serum-free medium (AthenaES, Baltimore, Md.), and all other cells were cultured in RPMI 1640 supplemented with 10% fetal bovine serum, 100 IU/ml penicillin, and […] (Invitrogen, Carlsbad, Calif.). DUCaP cells were maintained in the presence of an immortalized mouse fibroblast cell line, which formed a layer beneath DUCaP cells that easily dislodged. Cells were incubated at 37° C. with circulation of 5% CO2.
(§3) The optimum number of cells to seed in 96-well plates to achieve linearity were determined in pilot experiments. Cells were plated at density of 2000-5000 cells/well into 96-well plates and cultured overnight. Cells were then treated with dasatinib at serially diluted concentrations. Three days later, MTS was added to the medium and quantified on a SPECTRAMAX® photometric plate reader (Molecular Devices, Sunnyvale, Calif.) at 490 nm. The results were plotted against drug concentrations and IC50s were calculated using Prism4 software (GraphPad, San Diego, Calif.). The IC50 was the concentration of dasatinib that would reduce cell proliferation by 50% compared to control. Minimum three independent assays were performed for each cell line. […] In the latter case, the concentration of dasatinib that was able to consistently reduce cell proliferation was used as IC50. […] Dasatinib stock, dissolved in DMSO, was 10 mg/ml.

LNCaP = assay: In vitro cell proliferation assay (MTS); conditions: LNCaP cells
Description: as §1, §2, §3

PC3 = assay: In vitro cell proliferation assay (MTS); conditions: PC3 cells
Description: as §1, §2, §3

RWPE2 = assay: In vitro cell proliferation assay (MTS); conditions: RWPE2 cells
Description: as §1, §2, §3

RWPE1 = assay: In vitro cell proliferation assay (MTS); conditions: RWPE1 cells
Description: as §1, §2, §3

HPV7 = assay: In vitro cell proliferation assay (MTS); conditions: HPV7 cells
Description: as §1, §2, §3

MDAPCa2b = assay: In vitro cell proliferation assay (MTS); conditions: MDAPCa2b cells
Description: as §1, §2, §3

PLAU mRNA = assay: Down-regulation of PLAU mRNA expression by dasatinib; conditions: for reduction of PLAU mRNA expression: 100 nM, 48 hours vs DMSO
From the text: FIG. 3. PLAU gene expression and regulation by dasatinib analyzed at mRNA and protein levels. (A) Differential baseline expression of PLAU gene between resistant (R, in black) and sensitive (S, in red) cell lines. The X-values are the expression level in log2-scale. The resistant cell line expressing high level of PLAU was WPMY1 and the sensitive cell line expressing low level of PLAU was LNCaP. (B) Down-regulation of PLAU mRNA level by dasatinib-treatment in 5 sensitive cell lines. The cells were treated with 100 nM dasatinib (+D) or DMSO (Ctrl) for 48 hours. The p value was 0.048 in paired t-test, indicating a significant reduction of PLAU mRNA following dasatinib treatment. (C) Correlation between dasatinib-induced PLAU mRNA down-regulation with the sensitivity of cell lines to dasatinib. In addition to those 5 sensitive cells, three dasatinib-resistant cell lines 22Rv, MDAPCa2b, and VCaP were also treated with dasatinib same as in FIG. 3B. The extent of PLAU down-regulation by dasatinib (Y-axis) was negatively correlated with the log2IC50 values (X-axis) of these 8 cell lines. (D) Dose-dependent down-regulation of PLAU mRNA expression in PC3 cells. Cells were treated with or without different concentrations of dasatinib for 4 or 24 hours. The PLAU expression level relative to control was shown in Y-axis. (E) Dose-dependent inhibition of secreted uPA protein in PC3 cells by dasatinib but not by TAXOL®. Cells were treated with different doses of dasatinib, TAXOL® or DMSO for 24 hours. The amount of uPA protein secreted into the culture medium by 50,000 viable cells was assessed by ELISA assay.
The down-regulation of PLAU mRNA expression by dasatinib was observed (FIG. 3B).
AFFYMETRIX® HG-U133v2 gene chips containing ˜22,000 probe sets were used for gene expression profiling (Affymetrix, Santa Clara, Calif.). Total RNA was isolated from the cells using the RNeasy kits (Qiagen, Valencia, Calif.). The quality of the RNA was assessed using an Agilent 2100 Bioanalyzer (Agilent, Santa Clara, Calif.). Ten μg of total RNA was used for the preparation of biotin-labeled cRNA. Chip hybridization, scanning and data acquisition were performed according to the Expression Analysis Technical Manual provided by the manufacturer.
The raw expression data were normalized using an RMA algorithm and analyzed in PARTEK® Discovery Suite software (Partek, St Louis, Mo.). Two statistical analyses including 1-way ANOVA for comparison of gene expression between sensitive and resistant cell line groups, and Pearson correlation between gene expression level and log2IC50 values were performed to identify genes whose baseline expression levels correlated with the sensitivity to dasatinib in 16 prostate cell lines (p value<0.05 in both analyses). […] ESTs and gene duplicates were eliminated from the final list. Gene expression profiles of drug treated (100 nM for 2 days) cell lines were compared with those of DMSO control using paired t-test (p value<0.05). Clustering analysis was performed using GeneCluster software and heatmaps were generated with red and green indicating high or low expression respectively.

[1] = Homo sapiens, 72 h, MTS, three days, read-out: mean IC50 (μM) to BMS-A

SMILES: Cc1nc(Nc2ncc(C(=O)Nc3c(C)cccc3Cl)s2)cc(N2CCN(CCO)CC2)n1 [BMS-A, N-(2-chloro-6-methylphenyl)-2-[[6-[4-(2-hydroxyethyl)-1-piperazinyl]-2-methyl-4-pyrimidinyl]amino]-5-thiazolecarboxamide]
- IC50 (VCaP; Homo sapiens, 72 h, MTS, three days, highly resistant: concentration that consistently reduced proliferation used as IC50, read-out: mean IC50 (μM) to BMS-A): 2 µM
- Classification (VCaP; based on IC50): Resistant (those having an IC50 above 0.2 μm were considered to be resistant)
- IC50 (LNCaP; [1]): 0.068 µM
- Classification (LNCaP; based on IC50): Sensitive (The cell lines with an IC50 lower than 0.2 μm were defined as sensitive to the compound)
- IC50 (PC3; Homo sapiens, PC-3, 72 h, MTS, three days, read-out: mean IC50 (μM) to BMS-A): 0.051 µM
- Classification (PC3; based on IC50): Sensitive (The cell lines with an IC50 lower than 0.2 μm were defined as sensitive to the compound)
- IC50 (RWPE2; [1]): 0.151 µM
- Classification (RWPE2; based on IC50): Sensitive (The cell lines with an IC50 lower than 0.2 μm were defined as sensitive to the compound)
- IC50 (RWPE1; Homo sapiens, RWPE-1, 72 h, MTS, three days, read-out: mean IC50 (μM) to BMS-A): 0.12 µM
- Classification (RWPE1; based on IC50): Sensitive (The cell lines with an IC50 lower than 0.2 μm were defined as sensitive to the compound)
- Classification (HPV7; based on IC50): Sensitive (The cell lines with an IC50 lower than 0.2 μm were defined as sensitive to the compound)
- IC50 (HPV7; [1]): 0.127 µM
- IC50 (MDAPCa2b; Homo sapiens, MDA-PCa-2b, 72 h, MTS, three days, highly resistant: concentration that consistently reduced proliferation used as IC50, read-out: mean IC50 (μM) to BMS-A): 2.5 µM
- Classification (MDAPCa2b; based on IC50): Resistant (those having an IC50 above 0.2 μm were considered to be resistant)
- reduction of PLAU mRNA expression (PLAU mRNA; DU145 cells): approximately 50%
- reduction of PLAU mRNA expression (PLAU mRNA; LNCaP cells): showed a reduction
- reduction of PLAU mRNA expression (PLAU mRNA; PC3 cells): approximately 50%
- reduction of PLAU mRNA level, multiple-dose treatment study (PLAU mRNA; PC3 cells, 4 h, all doses vs untreated control): minimal
- reduction of PLAU mRNA level, multiple-dose treatment study (PLAU mRNA; PC3 cells, 24 h, dose-dependent): dramatic
- reduction of PLAU mRNA expression (PLAU mRNA; PWR1E cells (CK5-expressing)): relatively mild reduction
- reduction of PLAU mRNA expression (PLAU mRNA; RWPE2 cells (CK5-expressing)): relatively mild reduction
